Earlier results in US12728096B2, “Pharmaceutical composition comprising enzalutamide” (Synthon B.V., priority 2019, dated 2026).

How the values were obtained:
[1] = pH 1 to 11

- solubility in water [1]: practically insoluble
- permeability (BCS): high permeability
- solubility (BCS): low solubility
SMILES: CNC(=O)c1ccc(N2C(=S)N(c3ccc(C#N)c(C(F)(F)F)c3)C(=O)C2(C)C)cc1F [Enzalutamide, 4-[3-[4-cyano-3-(trifluoromethyl)phenyl]-5,5-dimethyl-4-oxo-2-sulfanylideneimidazolidin-1-yl]-2-fluoro-N-methylbenzamide]
